Laboratory results reported in patent US12679801B2, “Amino lipid and preparation method and application thereof” (Shenzhen MagicRNA Biotechnology Co., Ltd., priority 2022, dated 2026).

tested on: BMDC primary cells; assay: Luc mRNA LNP transfection on BMDC primary cells (Embodiment 13, Table 3); type: cell-based, C57BL/6 mice; settings: 16 h, ONE-Glo Luciferase
Experimental: Preparation method: the same as that described in Embodiment 7.
Animal preparation: 6-week-old female C57BL/6 mice with the body weight about 20 g were selected. The feeding environment was an SPF stage feeding room. Animal tests were strictly performed according to the guide of the national health institute and the animal ethics requirements.
Cell acquisition: C57BL/6 mice were killed through cervical dislocation, and were soaked for 5 min in 75% ethyl alcohol. Dissection was performed to obtain thigh and calf tibiae of the mice. Attached muscles were removed to expose sclerotin. Then, bone marrow in tibiae was blown out by using a 1 mL injector sucked with PBS. After the bone marrow was blown away, impurities were filtered away by a 50 μm filter screen. A red blood cell lysis buffer (3-4 mL) was added into an obtained filtrate. Then, after placement for 5 min, 800 g centrifugation was performed for 5 min to remove the supernatant. The obtained cells were placed into a 1640 culture medium (containing 10% fetal calf serum, 20 ng/mL GMCSF and 10 ng/ml IL4) to be resuspended, and were inoculated into a 6-well plate at an inoculation density of 100000 cells/ml culture medium. The materials were placed into a 37° C. cell incubator containing 5% CO2. Half liquid change was performed once every 2 days. Suspended cells and loose wall attached cells were collected on the seventh day, and were […], and the volume of a culture medium was 100 μL.
Cell transfection: lipid nanoparticles coated with luciferase mRNA were added into a 96-well all-white ELISA plate laid with primary cells. The adding volume of the mRNA lipid nanoparticles in each well was controlled to be 10 μL. Then, the materials were put into a 37° C. incubator containing 5% CO2 for 16 h.
Transfection efficiency detection: 20 μL of a substrate ONE-Glo™ Luciferase was added into each well of a 96-well all-white ELISA plate. After 1 min, detection was performed by a multifunctional or multimode microplate reader.

| Compound | Luciferase luminescence intensity |
| --- | --- |
| CCCCCCCCCC(CCCCCCC)C(=O)OCC(CCCCCC)OC(=O)C(C)CCN(C)C (stereo not shown) [E3C79A10] | 7.4E+ 04 |
| CCCCCCCCCC(CCCCCCC)C(=O)OCC(CCCCCC)OC(=O)CCCCN(C)C (stereo not shown) [E3C79A11] | 9.0E+ 04 |
| CCCCCCCCCC(CCCCCCC)C(=O)OCC(CCCCCC)OC(=O)CCCCCN(C)C (stereo not shown) [E3C79A12] | 6.7E+ 04 |
| CCCCCCCCCCCCCC(C)C(=O)OCC(CCCCCCC)OC(=O)CCCCN(C)C (stereo not shown) [E4C72A11] | 5.8E+ 04 |
| CCCCCCCCCCCCCCC(C)C(=O)OCC(CCCCCCC)OC(=O)CCCN(C)C (stereo not shown) [E4C74A9] | 6.9E+ 04 |
| CCCCCCCCCCCCCCC(C)C(=O)OCC(CCCCCCC)OC(=O)C(C)CCN(C)C (stereo not shown) [E4C74A10] | 4.7E+ 04 |
| CCCCCCCCCCCCCCC(C)C(=O)OCC(CCCCCCC)OC(=O)CCCCN(C)C (stereo not shown) [E4C74A11] | 6.0E+ 04 |
| CCCCCCCCCC(CCCCCCC)C(=O)OCC(CCCCCCC)OC(=O)CCCN(C)C (stereo not shown) [E4C79A9] | 2.2E+ 04 |
| CCCCCCCCCC(CCCCCCC)C(=O)OCC(CCCCCCC)OC(=O)C(C)CCN(C)C (stereo not shown) [E4C79A10] | 1.3E+ 04 |
| CCCCCCCCCC(CCCCCCC)C(=O)OCC(CCCCCCC)OC(=O)CCCCN(C)C (stereo not shown) [E4C79A11] | 3.4E+ 04 |
| CCCCCCCCCC(CCCCCCC)C(=O)OCC(CCCCCCC)OC(=O)CCCCCN(C)C (stereo not shown) [E4C79A12] | 2.5E+ 04 |
| CCCCCCCCCCCCCCCCCC(=O)OCC(CCCCCCCC)OC(=O)CCCCCN(C)C (stereo not shown) [E5C13A12] | 1.1E+ 04 |
| CCCCCCCCC(COC(=O)C(CCCCCC)CCCCCCCC)OC(=O)CCCCN(C)C (stereo not shown) [E5C71A11] | 4.6E+ 04 |
| CCCCCCCCCCCCCCC(C)C(=O)OCC(CCCCCCCC)OC(=O)C(C)CCN(C)C (stereo not shown) [E5C74A10] | 2.9E+ 04 |
| CCCCCCCCCCCCCCC(C)C(=O)OCC(CCCCCCCC)OC(=O)CCCCN(C)C (stereo not shown) [E5C74A11] | 7.7E+ 03 |
| CCCCCCCCCC(CCCCCCC)C(=O)OCC(CCCCCCCC)OC(=O)CCCCN(C)C (stereo not shown) [E5C79A11] | 3.6E+ 04 |
| CCCCCCCC/C=C/CCCCCCCC(=O)OCC(CCCCCCCC)OC(=O)C1CCN(C)CC1 (stereo not shown) [E5C82A23, 1-(Octadec-9-Enoyloxy) Decan-2-Yl 1-Methylpiperidine-4-Carboxylate] | 1.4E+ 04 |
| CCCCCCCCCC(COC(=O)C(CCCCCC)CCCCCCCC)OC(=O)CCCCN(C)C (stereo not shown) [E6C71A11] | 3.4E+ 04 |
| CCCCCCCCCCCCCC(C)C(=O)OCC(CCCCCCCCC)OC(=O)CCCCN(C)C (stereo not shown) [E6C72A11] | 5.0E+ 04 |
| CCCCCCCCCCCCCCC(C)C(=O)OCC(CCCCCCCCC)OC(=O)C(C)CCN(C)C (stereo not shown) [E6C74A10] | 1.1E+ 04 |
| CCCCCCCCCCCCCCC(C)C(=O)OCC(CCCCCCCCC)OC(=O)CCCCN(C)C (stereo not shown) [E6C74A11] | 4.5E+ 04 |
| CCCCCCCCCC(COC(=O)C(CCCCCCC)CCCCCCCCC)OC(=O)C(C)CCN(C)C (stereo not shown) [E6C79A10] | 4.6E+ 04 |

| Compound | Luciferase luminescence intensity |
| --- | --- |
| CCCCCCCCCC(COC(=O)C(CCCCCCC)CCCCCCCCC)OC(=O)CCCCN(C)C (stereo not shown) [E6C79A11] | 5.4E+ 04 |
| CCCCCCCCCC(COC(=O)C(CCCCCCC)CCCCCCCCC)OC(=O)CCCCCN(C)C (stereo not shown) [E6C79A12] | 2.5E+ 04 |
| CCCCCCCCCCC(COC(=O)C(CCCCCC)CCCCCCCC)OC(=O)C(C)CCN(C)C (stereo not shown) [E7C71A10] | 8.3E+ 04 |
| CCCCCCCCCCC(COC(=O)C(CCCCCC)CCCCCCCC)OC(=O)CCCCN(C)C (stereo not shown) [E7C71A11] | 4.4E+ 04 |
| CCCCCCCCCCCCCCC(C)C(=O)OCC(CCCCCCCCCC)OC(=O)CCCN(C)C (stereo not shown) [E7C74A9] | 4.8E+ 04 |
| CCCCCCCCCCCCCCC(C)C(=O)OCC(CCCCCCCCCC)OC(=O)C(C)CCN(C)C (stereo not shown) [E7C74A10] | 3.7E+ 04 |
| CCCCCCCCCCCCCCC(C)C(=O)OCC(CCCCCCCCCC)OC(=O)CCCCN(C)C (stereo not shown) [E7C74A11] | 3.2E+ 04 |
| CCCCCCCCCCC(COC(=O)C(CCCCCCC)CCCCCCCCC)OC(=O)CCCN(C)C (stereo not shown) [E7C79A9] | 5.6E+ 04 |
| CCCCCCCCCCC(COC(=O)C(CCCCCCC)CCCCCCCCC)OC(=O)C(C)CCN(C)C (stereo not shown) [E7C79A10] | 3.6E+ 04 |
| CCCCCCCCCCC(COC(=O)C(CCCCCCC)CCCCCCCCC)OC(=O)CCCCN(C)C (stereo not shown) [E7C79A11] | 4.2E+ 04 |
| CCCCCCCCCCC(COC(=O)C(CCCCCCC)CCCCCCCCC)OC(=O)CCCCCN(C)C (stereo not shown) [E7C79A12] | 3.5E+ 04 |
| CCCCCCCCCCCC(COC(=O)C(CCCCCC)CCCCCCCC)OC(=O)CCCN(C)C (stereo not shown) [E8C71A9] | 8.8E+ 04 |
| CCCCCCCCCCCC(COC(=O)C(CCCCCC)CCCCCCCC)OC(=O)CCCCN(C)C (stereo not shown) [E8C71A11] | 5.4E+ 04 |
| CCCCCCCCCCCC(COC(=O)C(CCCCCC)CCCCCCCC)OC(=O)C1CCN(C)CC1 (stereo not shown) [E8C71A23] | 1.5E+ 04 |
| CCCCCCCCCCCCCC(C)C(=O)OCC(CCCCCCCCCCC)OC(=O)CCCN(C)C (stereo not shown) [E8C72A9] | 6.1E+ 04 |
| CCCCCCCCCCCCCC(C)C(=O)OCC(CCCCCCCCCCC)OC(=O)CCCCN(C)C (stereo not shown) [E8C72A11] | 7.3E+ 04 |
| CCCCCCCCCCCCCCC(C)C(=O)OCC(CCCCCCCCCCC)OC(=O)CCCN(C)C (stereo not shown) [E8C74A9] | 8.5E+ 04 |
| CCCCCCCCCCCCCCC(C)C(=O)OCC(CCCCCCCCCCC)OC(=O)CCCCN(C)C (stereo not shown) [E8C74A11] | 4.0E+ 04 |
| CCCCCCCCCCCCCCC(C)C(=O)OCC(CCCCCCCCCCC)OC(=O)C1CCN(C)CC1 (stereo not shown) [E8C74A23] | 1.3E+ 04 |
| CCCCCCCCCCCC(COC(=O)C(CCCCCCC)CCCCCCCCC)OC(=O)CCCN(C)C (stereo not shown) [E8C79A9] | 3.6E+ 04 |
| CCCCCCCCCCCCC(COC(=O)C(CCCC)CCCCCC)OC(=O)C(C)CCN(C)C (stereo not shown) [E9C56A10] | 8.8E+ 04 |
| CCCCCCCCCCCCC(COC(=O)C(CCCCC)CCCCC)OC(=O)C(C)CCN(C)C (stereo not shown) [E9C57A10] | 3.2E+ 04 |

| Compound | Luciferase luminescence intensity |
| --- | --- |
| CCCCCCCCCCCCC(COC(=O)C(C)(C)CCCCCCCC)OC(=O)CCCCN(C)C (stereo not shown) [E9C58A11] | 3.5E+ 04 |
| CCCCCCCCCCCCC(COC(=O)C(CC)CCCCCCCCC)OC(=O)C1CCN(C)CC1 (stereo not shown) [E9C60A23] | 1.8E+ 04 |
| CCCCCCCCCCCCC(COC(=O)C(CCC)CCCCCCCC)OC(=O)C(C)CCN(C)C (stereo not shown) [E9C62A10] | 4.3E+ 04 |
| CCCCCCCCCCCCC(COC(=O)CCCCCCCCCC(C)CC)OC(=O)C(C)CCN(C)C (stereo not shown) [E9C63A10] | 5.6E+ 04 |
| CCCCCCCCCCCCC(COC(=O)C(CCCCCC)CCCCCC)OC(=O)CCCN(C)C (stereo not shown) [E9C64A9] | 8.9E+ 04 |
| CCCCCCCCCCCC(COC(=O)C(CCCCCC)CCCCCC)OC(=O)C(C)CCN(C)C (stereo not shown) [E9C64A10] | 6.1E+ 04 |
| CCCCCCCCCCCCC(COC(=O)C(C)(C)CCCCCCCCCC)OC(=O)CCCN(C)C (stereo not shown) [E9C66A9] | 2.3E+ 04 |
| CCCCCCCCCCCCC(COC(=O)CCCCCCCCCCCC(C)C)OC(=O)C(C)CCN(C)C (stereo not shown) [E9C67A10] | 7.8E+ 04 |
| CCCCCCCCCCCCCCC(C)C(=O)OCC(CCCCCCCCCCCCC)OC(=O)CCCN(C)C (stereo not shown) [E10C74A9] | 1.3E+ 04 |
| CCCCCCCCCCCCCCC(C)C(=O)OCC(CCCCCCCCCCCCC)OC(=O)C1CCN(C)CC1 (stereo not shown) [E10C74A23] | 1.0E+ 04 |
| CCCCCCCCCCCCCC(COC(=O)C(CCCCCCC)CCCCCCCCC)OC(=O)CCCN(C)C (stereo not shown) [E10C79A9] | 1.3E+ 04 |
| CCCCCCCCCCCCCCC(COC(=O)CCCCCCCCCCC)OC(=O)CCCN(C)C (stereo not shown) [E11C7A9, 2-((4-(Dimethylamino)Butanoyl)Oxy)Hexadecyl Dodecanoate] | 1.5E+ 04 |
| CCCCCCCCCCCCCCC(COC(=O)C(CCCCC)CCCCC)OC(=O)CCCCN(C)C (stereo not shown) [E11C57A11] | 6.4E+ 04 |
| CCCCCCCCCCCCCCC(COC(=O)C(C)(C)CCCCCCCC)OC(=O)CCCCN(C)C (stereo not shown) [E11C58A11] | 2.3E+ 04 |
| CCCCCCCCCCCCCCC(COC(=O)C(CC)CCCCCCCCC)OC(=O)CCCCN(C)C (stereo not shown) [E11C60A11] | 3.3E+ 04 |
| CCCCCCCCCCCCCCC(COC(=O)C(CCC)CCCCCCCC)OC(=O)CCCCN(C)C (stereo not shown) [E11C62A11] | 4.1E+ 04 |
| CCCCCCCCCCCCCCCC(COC(=O)CCCCCCCCCC)OC(=O)CCCCN(C)C (stereo not shown) [E12C6A11] | 1.2E+ 04 |
| CCCCCCCCCCCCCCCC(COC(=O)C(CCCCCC)CCCCCC)OC(=O)C1CCN(C)CC1 (stereo not shown) [E12C64A23] | 1.8E+ 04 |
| CCCCCCCCCCCCCCCC(COC(=O)C(C)CCCCCCCCCCCCCC)OC(=O)CCCCN(C)C (stereo not shown) [E12C74A11] | 1.1E+ 04 |
| C=CCCCCC(COC(=O)C(CCCCCCC)CCCCCCCCC)OC(=O)C(C)CCN(C)C (stereo not shown) [E15C79A10] | 8.9E+ 04 |
